What all share (test): relative viability (nuclei count vs DMSO), 5 days (fraction); higher = more cells survive
Compound in experiment [1]: COC1=CC=C(C=C1)CN2C=CC3=C2C=C(C=C3)C(=O)NO + Nc1nc2[nH]cc(CCc3ccc(C(=O)N[C@@H](CCC(=O)O)C(=O)O)cc3)c2c(=O)[nH]1 [Pemetrexed] (partner 0.2 µM)
In a few lines: (§1)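 Lung cancer cell lines, seeded in 1536-well plates, were treated the following day by pin tool with a single drug or with five library-drug doses (not always all listed) in √10 steps on top of a fixed anchor-drug dose. Cells were fixed and nuclei stained in one step after 5 days, and nuclei were counted. Relative viability is the nuclei count for treated wells divided by that for vehicle wells, reported as medians of duplicate plates.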

Compound in the experiment “Veliparib + Lapatinib”: C[C@]1(c2nc3c(C(N)=O)cccc3[nH]2)CCCN1 [Veliparib] + CS(=O)(=O)CCNCc1ccc(-c2ccc3ncnc(Nc4ccc(OCc5cccc(F)c5)c(Cl)c4)c3c2)o1 [Lapatinib] (partner 2 µM)
In a few lines: as §1

Compound in experiment [2]: COC1=CC=C(C=C1)CN2C=CC3=C2C=C(C=C3)C(=O)NO + Cc1nc(Nc2ncc(C(=O)Nc3c(C)cccc3Cl)s2)cc(N2CCN(CCO)CC2)n1 [Dasatinib] (partner 0.075 µM)
In a few lines: as §1

Compound in experiment [3]: COC1=CC=C(C=C1)CN2C=CC3=C2C=C(C=C3)C(=O)NO + C[C@]1(O)C[C@@H](c2nc(-c3ccc4ccc(-c5ccccc5)nc4c3)c3c(N)nccn32)C1 [Linsitinib] (partner 1 µM)
In a few lines: as §1

LU99A: the relative viability in experiment [1] (first compound 0.253 µM) stood at 0.181; in experiment [1] (first compound 0.8 µM) it was 0.169; in experiment [1] (first compound 2.53 µM) it was 0.174; in experiment [1] (first compound 8 µM), 0.194; in the experiment with Veliparib + Lapatinib (first compound 0.02 µM) it was 1.03; with Veliparib + Lapatinib (first compound 0.06325 µM) it was 0.926. Also, the relative viability in the experiment with Veliparib + Lapatinib (first compound 0.2 µM) came out at 0.585; with Veliparib + Lapatinib (first compound 0.6325 µM), 0.859; with Veliparib + Lapatinib (first compound 2 µM) it was 0.87; in experiment [2] (first compound 0.253 µM), 0.606; in experiment [2] (first compound 0.8 µM) it was 0.649; in experiment [2] (first compound 2.53 µM), 0.711. Further, the relative viability in experiment [2] (first compound 8 µM) came to 0.439; in experiment [3] (first compound 0.253 µM) it was 0.581; in experiment [3] (first compound 0.8 µM) it was 0.533; in experiment [3] (first compound 2.53 µM), 0.552; in experiment [3] (first compound 8 µM), 0.569.
Take NCI-H520: the relative viability in experiment [1] (first compound 0.08 µM) turned out to be 0.525; in experiment [1] (first compound 0.253 µM) it was 0.743; in experiment [1] (first compound 0.8 µM) it was 0.641; in experiment [1] (first compound 2.53 µM), 0.661; in experiment [1] (first compound 8 µM), 0.648; with Veliparib + Lapatinib (first compound 0.02 µM), 0.986. Besides, the relative viability stood at 0.859 with Veliparib + Lapatinib (first compound 0.06325 µM); 0.912 with Veliparib + Lapatinib (first compound 0.2 µM); 0.733 with Veliparib + Lapatinib (first compound 0.6325 µM); 0.858 with Veliparib + Lapatinib (first compound 2 µM); 0.16 in experiment [2] (first compound 0.08 µM); 0.228 in experiment [2] (first compound 0.253 µM). The relative viability turned out to be 0.213 in experiment [2] (first compound 0.8 µM); 0.232 in experiment [2] (first compound 2.53 µM); 0.281 in experiment [2] (first compound 8 µM); 0.313 in experiment [3] (first compound 0.08 µM); 1.04 in experiment [3] (first compound 0.253 µM); 1.01 in experiment [3] (first compound 0.8 µM). Further, the relative viability in experiment [3] (first compound 2.53 µM) came out at 0.977; in experiment [3] (first compound 8 µM) it was 0.946.
As to COR-L23, the relative viability in experiment [1] (first compound 0.08 µM) was 0.206; in experiment [1] (first compound 0.253 µM), 0.2; in experiment [1] (first compound 0.8 µM), 0.192; in experiment [1] (first compound 2.53 µM), 0.217; in experiment [1] (first compound 8 µM) it was 0.197; with Veliparib + Lapatinib (first compound 0.02 µM), 0.795. The relative viability amounted to 0.81 with Veliparib + Lapatinib (first compound 0.06325 µM); 0.802 with Veliparib + Lapatinib (first compound 0.2 µM); 0.982 with Veliparib + Lapatinib (first compound 0.6325 µM); 0.978 with Veliparib + Lapatinib (first compound 2 µM); 0.388 in experiment [2] (first compound 0.08 µM); 0.463 in experiment [2] (first compound 0.253 µM). Also, the relative viability came to 0.556 in experiment [2] (first compound 0.8 µM); 0.524 in experiment [2] (first compound 2.53 µM); 0.427 in experiment [2] (first compound 8 µM); 0.558 in experiment [3] (first compound 0.08 µM); 1.09 in experiment [3] (first compound 0.253 µM); 0.817 in experiment [3] (first compound 0.8 µM). Moreover, the relative viability in experiment [3] (first compound 2.53 µM) was 0.872; in experiment [3] (first compound 8 µM), 0.836.
Consider NCI-H1437, for which the relative viability in experiment [1] (first compound 0.08 µM) was determined as 0.334; in experiment [1] (first compound 0.253 µM), 0.358; in experiment [1] (first compound 0.8 µM), 0.319; in experiment [1] (first compound 2.53 µM), 0.305; in experiment [1] (first compound 8 µM) it was 0.3; in the experiment with Veliparib + Lapatinib (first compound 0.02 µM), 0.519. For the same cell line, the relative viability with Veliparib + Lapatinib (first compound 0.06325 µM) stood at 0.794; with Veliparib + Lapatinib (first compound 0.2 µM) it was 0.72; in the experiment with Veliparib + Lapatinib (first compound 0.6325 µM), 0.78; with Veliparib + Lapatinib (first compound 2 µM), 0.759; in experiment [2] (first compound 0.08 µM), 0.332; in experiment [2] (first compound 0.253 µM), 0.339. The relative viability worked out at 0.469 in experiment [2] (first compound 0.8 µM); 0.466 in experiment [2] (first compound 2.53 µM); 0.395 in experiment [2] (first compound 8 µM); 0.847 in experiment [3] (first compound 0.08 µM); 1.1 in experiment [3] (first compound 0.253 µM); 1.01 in experiment [3] (first compound 0.8 µM). The relative viability in experiment [3] (first compound 2.53 µM) was 1; in experiment [3] (first compound 8 µM), 1.13.
As to HARA, the relative viability in experiment [1] (first compound 0.253 µM) was 0.263; in experiment [1] (first compound 0.8 µM), 0.277; in experiment [1] (first compound 2.53 µM) it was 0.258; in experiment [1] (first compound 8 µM) it was 0.203; in the experiment with Veliparib + Lapatinib (first compound 0.02 µM), 0.748; with Veliparib + Lapatinib (first compound 0.06325 µM) it was 0.57. Moreover, the relative viability stood at 0.86 with Veliparib + Lapatinib (first compound 0.2 µM); 0.743 in the experiment with Veliparib + Lapatinib (first compound 0.6325 µM); 0.853 with Veliparib + Lapatinib (first compound 2 µM); 0.284 in experiment [2] (first compound 0.253 µM); 0.256 in experiment [2] (first compound 0.8 µM); 0.177 in experiment [2] (first compound 2.53 µM). Further, the relative viability in experiment [2] (first compound 8 µM) stood at 0.189; in experiment [3] (first compound 0.08 µM), 0.126; in experiment [3] (first compound 0.253 µM), 1.01; in experiment [3] (first compound 0.8 µM) it was 1.01; in experiment [3] (first compound 2.53 µM), 1.07; in experiment [3] (first compound 8 µM), 0.962.
NCI-H1666: the relative viability in experiment [1] (first compound 0.08 µM) came to 0.761; in experiment [1] (first compound 0.253 µM) it was 0.914; in experiment [1] (first compound 0.8 µM) it was 0.84; in experiment [1] (first compound 2.53 µM), 0.918; in experiment [1] (first compound 8 µM), 0.87; with Veliparib + Lapatinib (first compound 0.02 µM) it was 0.606. In addition, the relative viability turned out to be 0.348 with Veliparib + Lapatinib (first compound 0.06325 µM); 0.675 with Veliparib + Lapatinib (first compound 0.2 µM); 0.744 with Veliparib + Lapatinib (first compound 0.6325 µM); 0.662 with Veliparib + Lapatinib (first compound 2 µM); 0.831 in experiment [2] (first compound 0.08 µM); 0.783 in experiment [2] (first compound 0.253 µM). Moreover, the relative viability in experiment [2] (first compound 0.8 µM) is 0.887; in experiment [2] (first compound 2.53 µM), 0.873; in experiment [2] (first compound 8 µM) it was 0.822; in experiment [3] (first compound 0.08 µM), 0.696; in experiment [3] (first compound 0.253 µM), 0.892; in experiment [3] (first compound 0.8 µM) it was 0.757. The relative viability is 0.76 in experiment [3] (first compound 2.53 µM) and 0.901 in experiment [3] (first compound 8 µM).
As for CAL-12T, the relative viability in experiment [1] (first compound 0.08 µM) is 1.2; in experiment [1] (first compound 0.253 µM) it was 1.27; in experiment [1] (first compound 0.8 µM), 1.09; in experiment [1] (first compound 2.53 µM), 1.1; in experiment [1] (first compound 8 µM) it was 1.27; in the experiment with Veliparib + Lapatinib (first compound 0.02 µM), 0.649. Besides, the relative viability with Veliparib + Lapatinib (first compound 0.06325 µM) came to 0.706; in the experiment with Veliparib + Lapatinib (first compound 0.2 µM), 0.647; with Veliparib + Lapatinib (first compound 0.6325 µM) it was 0.593; with Veliparib + Lapatinib (first compound 2 µM), 0.781; in experiment [2] (first compound 0.08 µM), 0.426; in experiment [2] (first compound 0.253 µM), 0.613. In addition, the relative viability in experiment [2] (first compound 0.8 µM) was 0.478; in experiment [2] (first compound 2.53 µM), 0.414; in experiment [2] (first compound 8 µM), 0.408; in experiment [3] (first compound 0.08 µM), 0.695; in experiment [3] (first compound 0.253 µM), 0.917; in experiment [3] (first compound 0.8 µM) it was 0.756. In addition, the relative viability amounted to 0.76 in experiment [3] (first compound 2.53 µM) and 0.786 in experiment [3] (first compound 8 µM).

(Values after the supplement of paper PMC10307832.)
